According to PubChem BioAssay AID651854 (Broad Institute, 2012):
Calls of active or inactive are those of the source. How the calls were made is not given here.

Columns and labels:
[1] = inducers of V. cholerae light production, dose response, BH1578, luxS and cqsA deficient, dry powder (AID 651854); conditions: V. cholerae BH1578 lux reporter, luminescence, 6 h
[2] = test system: V. cholerae BH1578 lux reporter, luminescence, 6 h; experiment: as above

SMILES	light induction ([1]; at 35 µM (top of the series))	further results
CCn1nnc(NCc2ccc(N3CCCC3)cc2)n1	10.7% (inactive)	–
C[C@H](NC(=O)C[C@@H]1CC[C@H]2[C@H](COc3ccc(NS(=O)(=O)c4ccc(Cl)cc4)cc3C(=O)N2C)O1)c1ccccc1	0.158% (inactive)	–
CO[C@@H]1CC[C@H]2CCOc3ccc(C#N)cc3C(=O)N(C)[C@H](C)C(=O)N(C)C[C@@H]1O2	0.313% (inactive)	–
CCOC(=O)c1cc2c(c(-c3cccc(Br)c3)n1)[C@@H](CCO)N(C(=O)NC(C)C)C2	0.322% (inactive)	–
COc1ccc(C#Cc2ccc3c(c2)O[C@H](CN(C)C(=O)CN2CCOCC2)[C@@H](C)CN([C@@H](C)CO)S3(=O)=O)cc1	0% (inactive)	–
Cc1noc(C)c1NC(=O)N(C)C[C@@H]1Oc2ccc(NC(=O)CCC(F)(F)F)cc2C(=O)N([C@@H](C)CO)C[C@@H]1C	0.322% (inactive)	–
CCC(=O)Nc1nn(C)c2nc3cc(C)ccc3cc12	-0.824% (inactive)	–
CC(C)COC(=O)CNc1n[nH]c(=S)[nH]c1=O	–	AC40 [2]: > 35 µM (inactive)
O=C(O)C[C@@H]1CC[C@H](NC(=O)c2ccncc2)[C@@H](CO)O1	0.322% (inactive)	–
CCn1nc(NC(=O)c2ccco2)c2cc3ccc(C)cc3nc21	–	AC40 [2]: > 35 µM (inactive)
C[C@H](CO)N1C[C@H](C)[C@@H](CN(C)C(=O)NC2CCCCC2)OCc2ccccc2-c2c(n(C)c3ccccc23)C1=O	0% (inactive)	–
CC(C)NC(=O)Nc1ccc2c(c1)C(=O)N([C@H](C)CO)C[C@H](C)[C@@H](CN(C)Cc1ccncc1)OCCCC[C@@H](C)O2	–	light induction ([1]; at 30 µM (top of the series)): 3.45% (inactive)
Cc1ccc2cc3c(NC(=O)c4ccco4)nn(CC(C)C)c3nc2c1	2.93% (inactive)	–
CC(C)c1cccc(NC(=O)C[C@H]2CC[C@H]3[C@@H](COc4ccc(NC(=O)c5ccc(C#N)cc5)cc4C(=O)N3C)O2)c1	0.322% (inactive)	–
C[C@H]1CN([C@@H](C)CO)C(=O)c2cc(NC(=O)CCC(F)(F)F)ccc2O[C@H]1CN(C)Cc1ccc(Cl)c(Cl)c1	1.05% (inactive)	–
COc1ccc(-c2ccc([C@@H]3[C@H](C#N)N(C(=O)NC4CCCCC4)[C@H]3CO)cc2)cc1	-0.497% (inactive)	–
O=[N+]([O-])c1ccc(N(CCO)CCO)c2c1no[n+]2[O-]	9.14% (inactive)	–
Cc1ccc2cc3c(NC(=O)C4CCCCC4)nn(C)c3nc2c1	–	AC40 [2]: < 0.135 µM
Cc1cccc2cc3c(NC(=O)c4ccco4)nn(C)c3nc12	–	AC40 [2]: < 0.135 µM
Cc1ccc2cc3c(NC(=O)c4ccccn4)nn(C)c3nc2c1	-0.663% (inactive)	–
C[C@H]1CCCCO[C@H](CN(C)C(=O)c2ccccc2)[C@@H](C)CN([C@@H](C)CO)C(=O)c2cc(NC(=O)c3ccccc3)ccc2O1	-0.733% (inactive)	–
C[C@H]1CN([C@@H](C)CO)C(=O)Cc2cc(NS(C)(=O)=O)ccc2O[C@H]1CN(C)Cc1ccc(-c2ccccc2)cc1	-0.148% (inactive)	–
O=[N+]([O-])c1ccc(N2CCOCC2)c2c1no[n+]2[O-]	0.322% (inactive)	–
Cc1noc(C)c1NC(=O)N(C)C[C@H]1Oc2ccc(NC(=O)CCC(F)(F)F)cc2C(=O)N([C@H](C)CO)C[C@H]1C	0% (inactive)	–
O=C(C[C@@H]1CC[C@@H]2[C@H](COC[C@H](O)CN2Cc2ccc(C(F)(F)F)cc2)O1)N1CCc2ccccc2C1	0.313% (inactive)	–
Cc1ccccc1-c1ccc2c(c1)O[C@H](CN(C)Cc1ccc(C(=O)O)cc1)[C@@H](C)CN([C@H](C)CO)S2(=O)=O	-0.148% (inactive)	–

SMILES	light induction ([1]; at 35 µM (top of the series))	further results
CO[C@@H]1CC[C@@H]2CCOc3ccc(C#N)cc3C(=O)N(C)C[C@H](C)C(=O)N(C)C[C@H]1O2	0.497% (inactive)	–
C[C@H](CO)N1C[C@H](C)[C@@H](CN(C)S(=O)(=O)c2ccccc2F)Oc2cc(-c3ccncc3)ccc2S1(=O)=O	0% (inactive)	–
CO[C@@H]1CN(C)C(=O)c2cc(NC(=O)C3CC3)ccc2OC[C@H](C)N(C(=O)NC(C)C)C[C@H]1C	1.05% (inactive)	–
Cn1c(C(=O)NC2CCCCC2)cc2c(=O)n(C)c3ccccc3c21	–	AC40 [2]: > 35 µM (inactive)
CCn1nc(NC(=O)c2ccco2)c2cc3ccccc3nc21	–	AC40 [2]: 5.43 µM
CO[C@H]1CN(C)C(=O)c2cc(NS(=O)(=O)c3c(C)noc3C)ccc2OC[C@H](C)NC[C@@H]1C	0% (inactive)	–
Cc1ccc2cc3c(NC(=O)c4ccccc4)nn(C)c3nc2c1	0.503% (inactive)	–
COc1ccc(-c2ccc([C@H]3[C@@H](C#N)N(C(=O)NC4CCCCC4)[C@H]3CO)cc2)cc1	–	AC40 [2]: > 35 µM (inactive)
COc1ccc(C#Cc2cnc3c(c2)C(=O)N([C@@H](C)CO)C[C@H](C)[C@H](CN(C)C(=O)CC2CC2)O3)cc1	0% (inactive)	–
C[C@H](CO)N1C[C@H](C)[C@@H](CN(C)S(=O)(=O)c2ccccc2)Oc2c(NC(=O)Nc3ccc4c(c3)OCO4)cccc2C1=O	–	AC40 [2]: > 16 µM (inactive)
Cn1nc(NC(=O)c2ccco2)c2c(F)cccc21	-0.824% (inactive)	–
CCCn1nnnc1NCc1ccc(N2CCCC2)cc1	–	AC40 [2]: < 0.135 µM
COc1ccc(CNC(=O)N(C)C[C@@H]2OCc3ccccc3-c3c(n(C)c4ccccc34)C(=O)N([C@@H](C)CO)C[C@H]2C)cc1	1.27% (inactive)	–
Cc1cc(C)c2c(NC(=O)c3ccco3)nn(C)c2n1	–	AC40 [2]: > 35 µM (inactive)
O=C(NC1CCCCC1)C(=O)c1c[nH]c2ccccc12	–	AC40 [2]: > 35 µM (inactive)
CO[C@H]1CN(C)C(=O)c2cccc(C#N)c2OCC[C@@H]2CC[C@@H](OC)[C@@H](CN(C)C(=O)[C@H]1C)O2	5.31% (inactive)	–
CCCC#Cc1cnc2c(c1)C(=O)N([C@H](C)CO)C[C@H](C)[C@H](CN(C)C(=O)CCN1CCCCC1)O2	-0.148% (inactive)	–
CN1C(=O)c2cc(NS(C)(=O)=O)ccc2OC[C@@H]2O[C@H](CC(=O)NCc3ccc(-c4ccccc4)cc3)CC[C@@H]21	0.313% (inactive)	–
C[C@@H]1CN([C@@H](C)CO)S(=O)(=O)c2ccc(-c3ccncc3)cc2O[C@@H]1CN(C)S(=O)(=O)c1ccccc1F	0.546% (inactive)	–
O=C(N[C@@H]1C=C[C@H](CC(=O)N2CCCCC2)O[C@H]1CO)c1ccc2c(c1)OCO2	0% (inactive)	–
CCn1nnnc1NCc1ccc(N2CCCC2)cc1	–	AC40 [2]: < 0.135 µM
CCCN(C)C[C@@H]1Oc2cc(C#Cc3cccc(OC)c3)ccc2S(=O)(=O)N([C@@H](C)CO)C[C@@H]1C	-0.148% (inactive)	–
C[C@H](CO)N1C[C@H](C)[C@H](CN(C)C(=O)Cc2ccncc2)Oc2cc(C3=CCCCC3)ccc2S1(=O)=O	0.158% (inactive)	–
COCC(=O)N[C@@H]1C=C[C@H](CC(=O)N2CCCCC2)O[C@@H]1CO	0.262% (inactive)	–
CC=Cc1ccc2n(c1=O)C[C@@H]1[C@@H](CO)[C@H](C(=O)NCC)N(Cc3ccccc3Cl)[C@H]21 (mixture of isomers)	0.694% (inactive)	–
